In patent US8580751B2, “Esterified α-galactosylceramide” (Riken, priority 2008, dated 2013):

Assays:
human NKT cells = settings: human system; cited from earlier work
IL-4 = IL-4 content in serum after intraperitoneal administration of synthetic glycolipid to mouse (Cytometric bead array system); assay type: in vivo; settings: 100 μg/kg body weight intraperitoneally, C57BL/6 mice, 12 hr (compounds 23, 24) or 3, 6, 12 hr (compound 33) after administration
Experimental: (§1) A 1 mg/mL dimethyl sulfoxide (DMSO) solution was prepared for each of α-GalCer, compound 23 and compound 24. The solutions were diluted with saline (manufactured by Otsuka Pharmaceutical Co., Ltd.) containing 0.5% Tween 20 (Bio-Rad) such that the dose would be 100 μg/kg body weight when 200 μL was intraperitoneally administered to one mouse.
(§2) Each of the prepared solutions (200 μL) of compounds 23 and 24 was intraperitoneally injected to C57BL/6 mice (2 per group). α-GalCer was used as a control substance, and 200 μL of α-GalCer solution prepared to a dose of 100 μg/kg body weight according to a similar method was injected intraperitoneally. A group administered with a medium (200 μL of saline containing 0.5% Tween 20) was taken as a negative control. The blood (80 μL) was taken from the orbital plexus venosus after the lapse of 6, 12 and 24 hr from the administration, and the serum was prepared.
(§3) The content of IFN-γ in the serum after lapse of 6, 12 and 24 hr from the administration was measured by sandwich ELISA (ENDOGEN). In addition, the content of IL-4 in the serum after lapse of 12 hr from the administration was measured by Cytometric bead array system (BD Biosciences), which is one kind of the ELISA method.
(§4) Using α-GalCer and compound 33, and according to a method similar to the above-mentioned Experimental Example 1, the blood (80 μL) was taken from the orbital plexus venosus after the lapse of 3, 6, 12, 24, 36, 48 and 60 hr from the administration, and the serum was prepared.
(§5) The content of IFN-γ in the serum after lapse of 3, 6, 12, 24, 36, 48 and 60 hr from the administration was measured by a method similar to the above-mentioned Experimental Example 1. In addition, the content of IL-4 in the serum after lapse of 3, 6 and 12 hr from the administration was measured by a method similar to the above-mentioned Experimental Example 1.

IFN-γ = IFN-γ content in serum after intraperitoneal administration of synthetic glycolipid to mouse (sandwich ELISA); assay type: in vivo; settings: 100 μg/kg body weight intraperitoneally, C57BL/6 mice, 6-24 hr (compounds 23, 24) or 3-60 hr (compound 33) after administration
Experimental: as §1, §2, §3, §4, §5

NKT cells [1] = settings: series of synthetic analogs of α-galactosylceramide; cited from earlier work
NKT cells [2] = settings: cited from earlier work

| Structure (SMILES) | activity on human NKT cells in vitro (human NKT cells) | production of IL-4 as compared to α-GalCer (IL-4) | production of IFN-γ as compared to α-GalCer (IFN-γ) | other results |
| --- | --- | --- | --- | --- |
| CCCCCCCCCCCCCCCCCCCCCCCCCC(=O)N[C@@H](CC[C@H]1OC(CO)[C@H](O)C(O)C1O)[C@H](O)[C@H](O)CCCCCCCCCCCCCC (stereo partly drawn) [α-C-GalCer] | very weak activity | – | – | – |
| CCCCCCCCCCCCCCCCCCCCCCCCCC(=O)O[C@@H](CO[C@H]1O[C@H](CO)[C@H](O)[C@H](O)[C@H]1O)[C@H](O)[C@H](O)CCCCCCCCCCCCCC [Compound 24, (2S,3R,4R)-3,4-dihydroxy-2-hexacosanoyloxyoctadecyl α-D-galactopyranoside] | – | lower | equivalent or higher | – |
| CCCCCCCCCCCCCCCCCCCCCCCCCC(=O)O[C@@H](CO[C@H]1O[C@H](COC)[C@H](O)[C@H](O)[C@H]1O)[C@H](O)[C@H](O)CCCCCCCCCCCCCC [Compound 33, (2S,3R,4R)-3,4-dihydroxy-2-hexacosanoyloxyoctadecyl 6-O-methyl-α-D-galactopyranoside] | – | lower | equivalent or higher | – |
| CCCCCCC#CCCCCCC[C@@H](O)[C@@H](O)[C@H](CO[C@H]1O[C@H](CO)[C@H](O)[C@H](O)[C@H]1O)OC(=O)CCCCCCCCCCCCCCCCCCCCCCCCC [Compound 23, (2S,3R,4R)-3,4-dihydroxy-2-hexacosanoyloxy-11-octadecyn-1-yl α-D-galactopyranoside] | – | lower | equivalent or higher | – |
| CCCCCCCCCCCCCCCCCCCCCCCCCC(=O)N[C@@H](CO[C@H]1OC(CO)[C@H](O)C(O)C1O)[C@H](O)[C@H](O)CCCCCCCCCCCCCC (stereo partly drawn) [α-GalCer] | – | – | – | immunostimulatory activity (NKT cells [1]): induces the strongest activity |
| CCCCCCCCCCCCCCCCCCCCCCCCCC(=O)N[C@@H](CO[C@H]1CC(CO)[C@H](O)C(O)C1O)[C@H](O)[C@H](O)CCCCCCCCCCCCCC (stereo partly shown) | strong activity | – | – | IFN-γ production by NKT cells (NKT cells [2]): strongly induces |
